Test results reported in US10005776B2, “Compounds as NIK inhibitors” (Janssen Pharmaceutica NV, priority 2014, dated 2018).

What was measured:
[1] = target: Recombinant Human NF-kappaB-Inducing Kinase (NIK/MAP3K14) (Homo sapiens, UniProt Q99558); assay: Inhibition of auto-phosphorylation of recombinant human NIK/MAP3K14 (AlphaScreen); format: biochemical; details: 25 microM ATP, 0.2 nM GST-tagged NIK/MAP3K14, 1 h at 25° C.; averaged over all measurements on all batches; read-out: Alpha-Screen IC50
Method: Inhibition of Auto-Phosphorylation of Recombinant Human NF-kappaB-Inducing Kinase (NIK/MAP3K14) Activity (AlphaScreen®)
NIK/MAP3K14 auto-phosphorylation activity was measured using the AlphaScreen® (αscreen) format (Perkin Elmer). All compounds tested were dissolved in dimethyl sulfoxide (DMSO) and further dilutions were made in assay buffer. Final DMSO concentration was 1% (v/v) in assays. Assay buffer was 50 mM Tris pH 7.5 containing 1 mM EGTA (ethylene glycol tetraacetic acid), 1 mM DTT (dithiothreitol), 0.1 mM Na3VO4, 5 mM MgCl2, 0.01% Tween® 20. Assays were carried out in 384 well Alphaplates (Perkin Elmer). Incubations consisted of compound, 25 microM Adenosine-5′-triphosphate (ATP), and 0.2 nM NIK/MAP3K14. Incubations were initiated by addition of GST-tagged NIK/MAP3K14 enzyme, carried out for 1 h at 25° C. and terminated by addition of stop buffer containing anti-phospho-IKK Ser176/180 antibody. Protein A Acceptor and Glutathione-Donor beads were added before reading using an EnVision® Multilabel Plate Reader (Perkin Elmer). Signal obtained in the wells containing blank samples was subtracted from all other wells and IC50's were determined by fitting a sigmoidal curve to % inhibition of control versus Log10 compound concentration.

L-363 cells = assay: Antiproliferative activity on L-363 cells (CellTiter-Glo); format: cell-based, human; details: 72 hr treatment, averaged values
Method: (§1) Determination of Antiproliferative Activity on LP-1, L-363 and JJN-3 Cells
(§2) All compounds tested were dissolved in DMSO and further dilutions were made in culture medium. Final DMSO concentration was 0.3% (v/v) in cell proliferation assays. Viability was assessed using CellTiter-Glo cell viability assay kit (Promega). The human LP-1, L-363 and JJN-3 cells (DSMZ) were cultured in RPMI 1640 medium supplemented with 2 mM L-glutamine, and 10% fetal calf serum (PAA). Cells were routinely kept as suspension cells at 37° C. in a humidified 5% CO2 atmosphere. Cells were passaged at a seeding density of 0.2×10^6/ml twice a week. Cells were seeded in black tissue culture treated 96-well plates (Perkin Elmer). Densities used for plating ranged from 2,000 to 6,000 cells per well in a total volume of 75 μl medium. After twenty four hours, drugs and/or solvents were added (25 μl) to a final volume of 100 μl. Following 72 hr of treatment plates were removed from the incubator and allowed to equilibrate to room temperature for approx 10 min. 100 μl CellTiter-Glo reagent was added to each well that was then covered (Perkin Elmer Topseal) and shaken on plate shaker for 10 min. Luminescence was measured on a HTS Topcount (Perkin Elmer). Within an experiment, the results for each treatment were the mean of 2 replicate wells. For initial screening purposes, compounds were tested using a 9 point dilution curve (serial 1:3 dilutions). For each experiment, controls (containing no drug) and a blank incubation (containing cells read at the time of compound addition) were run in parallel. The blank value was subtracted from all control and sample values. For each sample, the mean value for cell growth (in relative light units) was expressed as a percentage of the mean value for cell growth of the control.

JJN-3 cells = assay: Antiproliferative activity on JJN-3 cells (CellTiter-Glo); format: cell-based, human; details: 72 hr treatment, averaged values
Method: as §1, §2

LP-1 cells = assay: Antiproliferative activity on LP-1 cells (CellTiter-Glo); format: cell-based, human; details: 72 hr treatment, averaged values
Method: as §1, §2

Sequence of Recombinant Human NF-kappaB-Inducing Kinase (NIK/MAP3K14) (Q99558 whole entry): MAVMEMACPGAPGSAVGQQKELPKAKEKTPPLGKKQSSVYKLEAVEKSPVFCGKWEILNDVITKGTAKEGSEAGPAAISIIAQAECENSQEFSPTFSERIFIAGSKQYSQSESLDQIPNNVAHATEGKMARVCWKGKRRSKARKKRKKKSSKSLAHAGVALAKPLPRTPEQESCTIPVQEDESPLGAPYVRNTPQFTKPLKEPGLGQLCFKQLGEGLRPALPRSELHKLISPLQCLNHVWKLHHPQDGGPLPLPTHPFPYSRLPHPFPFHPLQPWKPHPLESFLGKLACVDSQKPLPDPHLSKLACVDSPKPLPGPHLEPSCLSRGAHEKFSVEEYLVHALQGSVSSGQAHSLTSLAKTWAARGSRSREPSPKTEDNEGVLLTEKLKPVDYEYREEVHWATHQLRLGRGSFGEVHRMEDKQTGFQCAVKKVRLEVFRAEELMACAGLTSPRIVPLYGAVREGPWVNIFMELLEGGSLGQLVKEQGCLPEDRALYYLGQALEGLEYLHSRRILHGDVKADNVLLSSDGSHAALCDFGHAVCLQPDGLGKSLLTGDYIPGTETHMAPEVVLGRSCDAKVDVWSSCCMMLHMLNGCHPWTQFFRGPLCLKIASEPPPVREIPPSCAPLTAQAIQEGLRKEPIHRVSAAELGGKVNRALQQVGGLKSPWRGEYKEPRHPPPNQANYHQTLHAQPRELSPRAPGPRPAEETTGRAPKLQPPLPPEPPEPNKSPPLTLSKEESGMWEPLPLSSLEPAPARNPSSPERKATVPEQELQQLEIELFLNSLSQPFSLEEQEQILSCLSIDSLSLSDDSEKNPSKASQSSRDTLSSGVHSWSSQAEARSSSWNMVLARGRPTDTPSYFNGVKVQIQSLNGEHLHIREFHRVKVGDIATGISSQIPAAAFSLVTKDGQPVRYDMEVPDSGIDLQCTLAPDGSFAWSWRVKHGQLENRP

Structure (SMILES) | IC50 [1] [µM] | EC50 (L-363 cells; Homo sapiens, L-363, 72 h) [µM] | EC50 (JJN-3 cells; Homo sapiens, JJN-3, 72 h) [µM] | EC50 (LP-1 cells; Homo sapiens, LP-1, 72 h) [µM] | EC50 (L-363 cells) [µM] | EC50 (JJN-3 cells) [µM] | EC50 (LP-1 cells) [µM]
CC(O)(C#Cc1cc2c(-c3nc(N)ncc3F)cn(C3CN(C4CC4)C3)c2cn1)c1nccs1 (stereo not drawn) [Compound 14] | 0.016 | 1.22 | 0.631 | 3.98 |  |  | 
CC(O)C#Cc1cc2c(-c3nc(N)ncc3F)cn(C3CN(C4CC4)C3)c2cn1 (stereo not drawn) [Compound 9] | 0.069 | 0.037 | 0.055 | 0.131 |  |  | 
Nc1ncc(F)c(-c2c[nH]c3cnc(C#CC4(O)CCCC4)cc23)n1 [Compound 20] | 0.002 | 0.126 | 0.152 | 1.12 |  |  | 
CC(O)(C#Cc1cc2c(-c3nc(N)ncc3F)cn(C3CN(CCC(F)(F)F)C3)c2cn1)C1CC1 (stereo not drawn) [Compound 5] | 0.074 | 0.175 | 0.227 | 0.377 |  |  | 
CC(O)(C#Cc1cc2c(-c3nc(N)ncc3F)c[nH]c2c(C2CC2)n1)C1CC1 (stereo not drawn) [Compound 1] | 0.095 | 0.004 | 0.008 | 0.019 |  |  | 
Cc1nc(C#CC(C)(O)C2CC2)cc2c(-c3nc(N)ncc3F)c[nH]c12 (stereo not drawn) [Compound 2] | 0.007 | 0.005 | 0.007 | 0.039 |  |  | 
Cc1cc(C(C)(O)C#Cc2cc3c(-c4nc(N)ncc4F)c[nH]c3c(C3CC3)n2)no1 (stereo not drawn) [Compound 23] | 0.067 | 0.368 | 0.442 | 1.28 |  |  | 
Cc1cc(C(C)(O)C#Cc2cc3c(-c4nc(N)ncc4F)c[nH]c3cn2)no1 (single isomer, unassigned) [Compound 32] | 0.379 |  |  |  | 5.5 | 4.34 | 19.6
Nc1ncc(F)c(-c2cn(C3CN(C4CC4)C3)c3cnc(C#CC4(O)CCCC4)cc23)n1 [Compound 21] | 0.095 | 0.408 | 0.464 | 1 |  |  | 
COCCCN1CCC(n2cc(-c3nc(N)ncc3F)c3cc(C#CC(C)(O)C4CC4)ncc32)C1 (stereo not drawn) [Compound 8] | 0.03 | 0.08 | 0.119 | 0.158 |  |  | 
CC(O)(C#Cc1cc2c(-c3nc(N)ncc3F)c[nH]c2c(C2CC2)n1)C1CC1 (single isomer, unassigned) [Compound 13] | 0.029 | 0.004 | 0.007 | 0.015 |  |  | 
CC(O)(C#Cc1cc2c(-c3nc(N)ncc3F)c[nH]c2cn1)c1nccs1 (stereo not drawn) [Compound 19] | 0.003 | 1.27 | 1.01 | 7.62 |  |  | 
CCCCN1CCC(n2cc(-c3nc(N)ncc3F)c3cc(C#CC(C)(O)C4CC4)ncc32)C1 (single isomer, unassigned) [Compound 27] | 0.026 |  |  |  | 0.053 | 0.092 | 0.1
CCCCN1CCC(n2cc(-c3nc(N)ncc3F)c3cc(C#CC(C)(O)C4CC4)ncc32)C1 (single isomer, unassigned) [Compound 26] | 0.018 | 0.063 | 0.101 | 0.114 |  |  | 
CCN1CCC(n2cc(-c3nc(N)ncc3F)c3cc(C#CC(C)(O)C4CC4)nc(C)c32)C1 (stereo not drawn) [Compound 10] | 0.058 | 0.01 | 0.022 | 0.02 |  |  | 
Cc1nc(C(C)(O)C#Cc2cc3c(-c4nc(N)ncc4F)cn(C4CN(C5CC5)C4)c3cn2)no1 (stereo not drawn) [Compound 15] | 0.144 | 2.72 | 3.22 | 14.4 |  |  | 
CC(O)(C#Cc1cc2c(-c3nc(N)ncc3F)cn(C3CN(C4CC4)C3)c2cn1)c1ncccn1 (stereo not drawn) [Compound 17] | 0.189 | 8.26 | 6.72 | 29 |  |  | 
Cc1cc(C(C)(O)C#Cc2cc3c(-c4nc(N)ncc4F)cn(C4CN(C5CC5)C4)c3cn2)no1 (stereo not drawn) [Compound 16] | 0.034 | 0.811 | 0.951 | 1.8 |  |  | 
CCCCN1CCC(n2cc(-c3nc(N)ncc3F)c3cc(C#CC(C)(O)C4CC4)ncc32)C1 (stereo not drawn) [Compound 11] | 0.021 | 0.04 | 0.062 | 0.052 |  |  | 
CCCN1CCC(n2cc(-c3nc(N)ncc3F)c3cc(C#CC(C)(O)C4CC4)ncc32)C1 (stereo not drawn) [Compound 6] | 0.029 | 0.031 | 0.062 | 0.069 |  |  | 
Nc1ncc(F)c(-c2c[nH]c3c(C4CC4)nc(C#CC4(O)CCCC4)cc23)n1 [Compound 22] | 0.037 | 0.024 | 0.037 | 0.11 |  |  | 
CC(O)(C#Cc1cc2c(-c3nc(N)ncc3F)c[nH]c2cn1)c1nccs1 (single isomer, unassigned) [Compound 31] | 0.002 |  |  |  | 1.21 | 0.634 | 5.74
COCCN1CCC(n2cc(-c3nc(N)ncc3F)c3cc(C#CC(C)(O)C4CC4)ncc32)C1 (stereo not drawn) [Compound 7] | 0.026 | 0.144 | 0.222 | 0.32 |  |  | 
[2H]C([2H])([2H])C(O)(C#Cc1cc2c(-c3nc(N)ncc3F)cn(C3CCCN(CCC)C3)c2cn1)C([2H])([2H])[2H] (single isomer, unassigned) [Compound 24] | 0.09 |  |  |  | 0.118 | 0.135 | 0.219
Cc1cc(C(C)(O)C#Cc2cc3c(-c4nc(N)ncc4F)c[nH]c3cn2)no1 (stereo not drawn) [Compound 18] | 0.01 | 1.09 | 1.19 | 5.03 |  |  | 
Cc1cc(C(C)(O)C#Cc2cc3c(-c4nc(N)ncc4F)c[nH]c3cn2)no1 (single isomer, unassigned) [Compound 33] | 0.003 |  |  |  | 0.472 | 0.593 | 4.12
[2H]C([2H])([2H])C(O)(C#Cc1cc2c(-c3nc(N)ncc3F)cn(C3CCCN(CCC)C3)c2cn1)C([2H])([2H])[2H] (single isomer, unassigned) [Compound 25] | 0.082 |  |  |  | 0.066 | 0.102 | 0.163
